SMILES strings stand for the structures. pEC50, pIC50: −log10 of the molar value.

As a reminder, the pIC50 is the IC50 on a negative log10 scale, so that one unit is a factor of ten. Read a low pIC50 as a large IC50. As a reminder, the Emax is the maximal effect, on the per cent scale that the assay sets. For orientation: pEC50 means −log10 of the EC50, conventionally taken in molar units.

The target of the first series is GABA-A receptor; anion channel. Put plainly: Inhibition of [35S]TBPS binding to GABA-A receptor in Sprague-Dawley rat brain cortical membrane incubated for 90 mins by liquid scintillation spectrometry. The format is cell membranes, Cortex.
Details: not given
Regarding `C[C@@]1(O)CC[C@H]2[C@H](CC[C@@H]3[C@@H]2CC[C@]2(C)[C@@H](C(=O)Cn4cnn(-c5cccc(F)c5)c4=O)CC[C@@H]32)C1`, the negative logarithm of the IC50 (pIC50) was 8.92.

`C[C@@]1(O)CC[C@H]2[C@H](CC[C@@H]3[C@@H]2CC[C@]2(C)[C@@H](C(=O)Cn4ncn(-c5cccc(F)c5)c4=O)CC[C@@H]32)C1` showed a pIC50 of 9.00.

With `C[C@@]1(O)CC[C@H]2[C@H](CC[C@@H]3[C@@H]2CC[C@]2(C)[C@@H](C(=O)Cn4ccn(-c5cccc(F)c5)c4=O)CC[C@@H]32)C1`, the pIC50 is 9.00.

Test system in another series: not listed separately
In words: Metabolic stability in human liver microsomes assessed as compound remaining at 1 uM preincubated for 10 mins followed by NADPH addition by LC-MS analysis. It counts as ADME, Microsome. The note with it: read-out: Stability. A general note: Liver microsomes are vesicles of endoplasmic reticulum, rich in cytochrome P450 enzymes.
On to `C[C@@]1(O)CC[C@H]2[C@H](CC[C@@H]3[C@@H]2CC[C@]2(C)[C@@H](C(=O)Cn4cnn(-c5cccc(F)c5)c4=O)CC[C@@H]32)C1`, for which the remaining at 1 µM was 89%.

A further series addresses GABA-A receptor; alpha-1/beta-2/gamma-2 (Homo sapiens) (UniProt P14867+P47870+P18507). Put plainly: Positive allosteric modulation of synaptic alpha1beta2gamma2 GABA-A receptor (unknown origin) transfected in LTK cells assessed as potentiation of GABA-induced peak current amplitude by measuring maximal efficacy at 0.01 to 10 uM at -80 mV holding potential preincubated for 30 secs followed by GABA stimulation for 2 secs by Q-patch assay relative to control. It counts as cell-based. The note with it: filed as positive allosteric modulator, dose 0.01-10 µM, time 32.0 sec.
In the case of `C[C@@]1(O)CC[C@H]2[C@H](CC[C@@H]3[C@@H]2CC[C@]2(C)[C@@H](C(=O)Cn4cnn(-c5cccc(F)c5)c4=O)CC[C@@H]32)C1`, the Emax was found to be 566%.

As to `C[C@@]1(O)CC[C@H]2[C@H](CC[C@@H]3[C@@H]2CC[C@]2(C)[C@@H](C(=O)Cn4ncn(-c5cccc(F)c5)c4=O)CC[C@@H]32)C1`, the maximum response (Emax) was found to be 1260%.

Regarding `C[C@@]1(O)CC[C@H]2[C@H](CC[C@@H]3[C@@H]2CC[C@]2(C)[C@@H](C(=O)Cn4ccn(-c5cccc(F)c5)c4=O)CC[C@@H]32)C1`, the Emax turned out to be 594%.

Test system in the next series: not listed separately
Put plainly: Drug concentration in Sprague-Dawley rat brain at 24.4 micromol/kg, IG measured after 2 hrs by LC-MS/MS analysis. The format is ADME, tissue-based. The note with it: in vivo, po, dose 24.4 µmol/kg.
As to `C[C@@]1(O)CC[C@H]2[C@H](CC[C@@H]3[C@@H]2CC[C@]2(C)[C@@H](C(=O)Cn4cnn(-c5cccc(F)c5)c4=O)CC[C@@H]32)C1`, the Ct was found to be 1530 nmol/kg.

Test system in the next series: not listed separately
In words: Metabolic stability in human liver microsomes assessed as intrinsic clearance at 1 uM preincubated for 10 mins followed by NADPH addition by LC-MS analysis. The format is ADME, Microsome. The note with it: read-out: CLH.
Take `C[C@@]1(O)CC[C@H]2[C@H](CC[C@@H]3[C@@H]2CC[C@]2(C)[C@@H](C(=O)Cn4cnn(-c5cccc(F)c5)c4=O)CC[C@@H]32)C1`: the CLint scaled at 1 µM stood at 3.9 mL/min/kg.

Test system in another series: not listed separately
In words: Drug concentration in Sprague-Dawley rat brain at 24.4 micromol/kg, IG measured after 0.5 hrs by LC-MS/MS analysis. The note with it: in vivo, po, dose 24.4 µmol/kg. It counts as ADME, tissue-based.
In the case of `C[C@@]1(O)CC[C@H]2[C@H](CC[C@@H]3[C@@H]2CC[C@]2(C)[C@@H](C(=O)Cn4cnn(-c5cccc(F)c5)c4=O)CC[C@@H]32)C1`, the Ct turned out to be 1708 nmol/kg.

The next series has as its target T1, GABA-A receptor; alpha-1/beta-2/gamma-2 (Homo sapiens, UniProt P14867+P18507+P47870).
T1 sequence (P14867 whole entry): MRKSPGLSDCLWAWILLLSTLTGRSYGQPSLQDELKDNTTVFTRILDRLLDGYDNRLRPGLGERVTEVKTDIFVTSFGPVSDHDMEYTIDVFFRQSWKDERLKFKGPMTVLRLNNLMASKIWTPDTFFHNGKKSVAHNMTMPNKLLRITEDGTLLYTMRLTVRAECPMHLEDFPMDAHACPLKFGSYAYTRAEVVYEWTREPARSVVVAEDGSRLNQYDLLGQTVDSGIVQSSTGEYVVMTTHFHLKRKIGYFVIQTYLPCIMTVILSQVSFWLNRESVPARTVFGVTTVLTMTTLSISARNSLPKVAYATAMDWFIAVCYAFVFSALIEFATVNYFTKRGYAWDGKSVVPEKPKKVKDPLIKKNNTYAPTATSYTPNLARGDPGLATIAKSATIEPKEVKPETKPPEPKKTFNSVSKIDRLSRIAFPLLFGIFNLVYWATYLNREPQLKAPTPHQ
T1 sequence (P47870 whole entry): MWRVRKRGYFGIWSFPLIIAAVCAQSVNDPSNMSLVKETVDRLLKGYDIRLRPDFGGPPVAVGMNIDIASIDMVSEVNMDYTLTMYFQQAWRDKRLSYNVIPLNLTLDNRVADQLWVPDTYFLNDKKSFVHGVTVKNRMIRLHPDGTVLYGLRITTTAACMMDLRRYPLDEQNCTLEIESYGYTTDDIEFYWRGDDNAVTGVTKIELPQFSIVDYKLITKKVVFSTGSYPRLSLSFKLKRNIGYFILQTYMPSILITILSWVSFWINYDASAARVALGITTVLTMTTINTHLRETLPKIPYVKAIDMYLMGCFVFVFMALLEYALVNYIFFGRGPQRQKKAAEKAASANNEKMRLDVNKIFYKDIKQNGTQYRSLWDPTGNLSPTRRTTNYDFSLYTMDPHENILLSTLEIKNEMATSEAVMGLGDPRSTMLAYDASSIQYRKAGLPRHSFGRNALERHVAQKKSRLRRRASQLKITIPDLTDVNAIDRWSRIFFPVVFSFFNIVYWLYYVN
T1 sequence (P18507 whole entry): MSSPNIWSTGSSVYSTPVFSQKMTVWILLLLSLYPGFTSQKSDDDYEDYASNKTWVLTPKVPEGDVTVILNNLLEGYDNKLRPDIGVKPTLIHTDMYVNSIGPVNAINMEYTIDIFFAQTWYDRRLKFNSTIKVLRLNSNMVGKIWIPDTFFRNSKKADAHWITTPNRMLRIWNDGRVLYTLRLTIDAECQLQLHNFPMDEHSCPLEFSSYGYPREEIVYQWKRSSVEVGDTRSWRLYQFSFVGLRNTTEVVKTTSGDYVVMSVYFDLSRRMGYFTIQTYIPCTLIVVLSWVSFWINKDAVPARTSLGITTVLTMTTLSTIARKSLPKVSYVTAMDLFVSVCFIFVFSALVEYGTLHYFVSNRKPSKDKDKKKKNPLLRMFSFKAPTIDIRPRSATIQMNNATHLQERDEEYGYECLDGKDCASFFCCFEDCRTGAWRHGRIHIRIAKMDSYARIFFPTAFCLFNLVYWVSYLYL
In words: Positive allosteric modulation of synaptic alpha1beta2gamma2 GABA-A receptor (unknown origin) transfected in LTK cells assessed as potentiation of GABA-induced peak current amplitude at -80 mV holding potential preincubated for 30 secs followed by GABA stimulation for 2 secs by Q-patch assay. It counts as cell-based.
Details: not given
Turning to `C[C@@]1(O)CC[C@H]2[C@H](CC[C@@H]3[C@@H]2CC[C@]2(C)[C@@H](C(=O)Cn4cnn(-c5cccc(F)c5)c4=O)CC[C@@H]32)C1`, the pEC50 was 7.25.

`C[C@@]1(O)CC[C@H]2[C@H](CC[C@@H]3[C@@H]2CC[C@]2(C)[C@@H](C(=O)Cn4ncn(-c5cccc(F)c5)c4=O)CC[C@@H]32)C1`: the pEC50 was 6.43.

`C[C@@]1(O)CC[C@H]2[C@H](CC[C@@H]3[C@@H]2CC[C@]2(C)[C@@H](C(=O)Cn4ccn(-c5cccc(F)c5)c4=O)CC[C@@H]32)C1`: the pEC50 was 6.62.

Test system in a further series: not listed separately
In words: Metabolic stability in Sprague-Dawley rat liver microsomes assessed as compound remaining at 1 uM preincubated for 10 mins followed by NADPH addition by LC-MS analysis. The format is ADME, Microsome. The note with it: read-out: Stability.
Take `C[C@@]1(O)CC[C@H]2[C@H](CC[C@@H]3[C@@H]2CC[C@]2(C)[C@@H](C(=O)Cn4cnn(-c5cccc(F)c5)c4=O)CC[C@@H]32)C1`: the remaining at 1 µM turned out to be 44.5%.

Test system in another series: not listed separately
Put plainly: Drug concentration in Sprague-Dawley rat brain at 24.4 micromol/kg, IG measured after 6 hrs by LC-MS/MS analysis. The format is ADME, tissue-based. The note with it: in vivo, po, dose 24.4 µmol/kg.
On to `C[C@@]1(O)CC[C@H]2[C@H](CC[C@@H]3[C@@H]2CC[C@]2(C)[C@@H](C(=O)Cn4cnn(-c5cccc(F)c5)c4=O)CC[C@@H]32)C1`, for which the Ct was determined as 792 nmol/kg.

For a further series, the target named is Gamma-aminobutyric acid receptor subunit alpha-4/beta3/delta (Homo sapiens) (UniProt P28472+P48169+O14764). Put plainly: Positive allosteric modulation of extrasynaptic alpha4beta3delta GABA-A receptor (unknown origin) transfected in CHO cells assessed as potentiation of GABA-induced peak current amplitude by measuring maximal efficacy at 0.01 to 10 uM at -80 mV holding potential preincubated for 30 secs followed by GABA stimulation for 2 secs by manual patch assay relative to control. The note with it: filed as positive allosteric modulator, dose 0.01-10 µM, time 32.0 sec. The format is cell-based.
For the compound `C[C@@]1(O)CC[C@H]2[C@H](CC[C@@H]3[C@@H]2CC[C@]2(C)[C@@H](C(=O)Cn4cnn(-c5cccc(F)c5)c4=O)CC[C@@H]32)C1`, the maximal response (Emax) came to 440%.

In the case of `C[C@@]1(O)CC[C@H]2[C@H](CC[C@@H]3[C@@H]2CC[C@]2(C)[C@@H](C(=O)Cn4ncn(-c5cccc(F)c5)c4=O)CC[C@@H]32)C1`, the Emax stood at 334%.

For `C[C@@]1(O)CC[C@H]2[C@H](CC[C@@H]3[C@@H]2CC[C@]2(C)[C@@H](C(=O)Cn4ccn(-c5cccc(F)c5)c4=O)CC[C@@H]32)C1`, the Emax is 552%.

For the next series, the target named is Gamma-aminobutyric acid receptor subunit alpha-4/beta3/delta (Homo sapiens, UniProt O14764+P28472+P48169). In words: Positive allosteric modulation of extrasynaptic alpha4beta3delta GABA-A receptor (unknown origin) transfected in CHO cells assessed as potentiation of GABA-induced peak current amplitude at -80 mV holding potential preincubated for 30 secs followed by GABA stimulation for 2 secs by manual patch assay. The format is cell-based.
Chain of Gamma-aminobutyric acid receptor subunit alpha-4/beta3/delta (P28472 whole entry): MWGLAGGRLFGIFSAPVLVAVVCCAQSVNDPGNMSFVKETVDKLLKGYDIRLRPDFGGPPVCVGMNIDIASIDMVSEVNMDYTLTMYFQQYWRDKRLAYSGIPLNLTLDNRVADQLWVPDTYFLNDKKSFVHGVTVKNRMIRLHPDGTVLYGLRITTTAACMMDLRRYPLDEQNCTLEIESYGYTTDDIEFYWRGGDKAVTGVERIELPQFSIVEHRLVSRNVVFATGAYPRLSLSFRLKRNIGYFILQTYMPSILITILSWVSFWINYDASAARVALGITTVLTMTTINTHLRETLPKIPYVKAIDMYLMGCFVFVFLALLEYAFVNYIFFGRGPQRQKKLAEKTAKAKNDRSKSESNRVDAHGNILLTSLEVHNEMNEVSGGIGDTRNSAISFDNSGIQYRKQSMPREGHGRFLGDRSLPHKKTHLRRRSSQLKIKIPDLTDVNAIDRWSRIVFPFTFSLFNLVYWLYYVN
Chain of Gamma-aminobutyric acid receptor subunit alpha-4/beta3/delta (P48169 whole entry): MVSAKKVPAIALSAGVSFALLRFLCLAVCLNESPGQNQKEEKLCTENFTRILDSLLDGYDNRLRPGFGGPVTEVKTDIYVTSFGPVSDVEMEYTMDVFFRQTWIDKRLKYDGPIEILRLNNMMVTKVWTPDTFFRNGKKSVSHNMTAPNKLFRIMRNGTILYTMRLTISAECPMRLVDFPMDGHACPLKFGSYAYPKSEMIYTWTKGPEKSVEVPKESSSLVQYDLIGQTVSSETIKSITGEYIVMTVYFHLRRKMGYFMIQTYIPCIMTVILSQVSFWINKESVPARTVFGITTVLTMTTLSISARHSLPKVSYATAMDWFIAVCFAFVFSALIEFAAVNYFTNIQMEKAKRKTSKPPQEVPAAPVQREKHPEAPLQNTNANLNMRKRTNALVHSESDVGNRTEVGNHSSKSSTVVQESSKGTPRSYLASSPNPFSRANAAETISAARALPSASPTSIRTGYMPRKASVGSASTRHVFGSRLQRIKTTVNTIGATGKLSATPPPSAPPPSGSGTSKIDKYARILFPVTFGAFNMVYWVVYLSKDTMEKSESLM
Chain of Gamma-aminobutyric acid receptor subunit alpha-4/beta3/delta (O14764 whole entry): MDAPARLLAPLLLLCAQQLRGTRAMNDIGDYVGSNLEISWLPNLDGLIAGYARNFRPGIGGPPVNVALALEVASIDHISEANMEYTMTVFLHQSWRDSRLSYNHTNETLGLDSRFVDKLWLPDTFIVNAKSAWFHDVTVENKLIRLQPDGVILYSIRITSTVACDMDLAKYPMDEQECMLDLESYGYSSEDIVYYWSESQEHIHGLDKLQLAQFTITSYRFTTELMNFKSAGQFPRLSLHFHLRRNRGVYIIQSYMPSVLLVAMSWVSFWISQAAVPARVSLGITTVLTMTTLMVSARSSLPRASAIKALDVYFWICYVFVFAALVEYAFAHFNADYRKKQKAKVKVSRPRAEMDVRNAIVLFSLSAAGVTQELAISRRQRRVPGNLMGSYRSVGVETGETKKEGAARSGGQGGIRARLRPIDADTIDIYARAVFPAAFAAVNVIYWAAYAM
Details: not given
In the case of `C[C@@]1(O)CC[C@H]2[C@H](CC[C@@H]3[C@@H]2CC[C@]2(C)[C@@H](C(=O)Cn4cnn(-c5cccc(F)c5)c4=O)CC[C@@H]32)C1`, the pEC50 was 8.00.

For the compound `C[C@@]1(O)CC[C@H]2[C@H](CC[C@@H]3[C@@H]2CC[C@]2(C)[C@@H](C(=O)Cn4ncn(-c5cccc(F)c5)c4=O)CC[C@@H]32)C1`, the pEC50 is 6.95.

With `C[C@@]1(O)CC[C@H]2[C@H](CC[C@@H]3[C@@H]2CC[C@]2(C)[C@@H](C(=O)Cn4ccn(-c5cccc(F)c5)c4=O)CC[C@@H]32)C1`, the pEC50 is 6.86.

Test system in a further series: not listed separately
In words: Metabolic stability in Sprague-Dawley rat liver microsomes assessed as intrinsic clearance at 1 uM preincubated for 10 mins followed by NADPH addition by LC-MS analysis. It counts as ADME, Microsome. The note with it: read-out: CLH.
Turning to `C[C@@]1(O)CC[C@H]2[C@H](CC[C@@H]3[C@@H]2CC[C@]2(C)[C@@H](C(=O)Cn4cnn(-c5cccc(F)c5)c4=O)CC[C@@H]32)C1`, the CLint scaled at 1 µM was 44 mL/min/kg.

Values taken from ChEMBL document CHEMBL5608182, “Synthesis and evaluation of neuroactive steroids with novel pharmacophore at C-21 let identify a compound with advantageous PK profile and higher EC50 and Emax as PAM on GABAA receptor” (Eur J Med Chem, 2024).
